According to US6586389B1, “Cubilin protein, DNA sequences encoding cubilin and uses thereof” (Administrators of the Tulane Educational Fund, priority 1998, dated 2003):
pKd: −log10 of the molar value.

What was measured:
Rabbit megalin = experiment: Megalin-cubilin interaction analysis by surface plasmon resonance; assay type: binding
Protocol: Rabbit megalin was immobilized to a sensor chip and the on rates and off rates for the binding of cubilin was recorded by flow of 20 nM purified cubilin along the chip surface. For control, cubilin was subjected to a blank chip. […] The binding curves in the presence of 10 mM EDTA or after prebinding of RAP to megalin are also shown. […] By fitting the binding data to a one-binding-site model a Kd of 7 nM was measured.
Surface plasmon resonance measurements were performed on a BIAcore 2000 instrument (Pharmacia, Sweden). BIAcore sensor chips (type CM5, Pharmacia) were activated with 1:1 mixture of 0.2 M N-ethyl-N′-(3-dimethylaminopropyl) carbodiimide and 0.05 M N-hydroxysuccimine in water. Rabbit megalin was immobilized as described (Moestrup et al., 1996) at a concentration of 40 μg/ml in 10 mM sodium acetate, pH 4.5 and the remaining binding sites were blocked with 1 M ethanolamine, pH 8.5. The flow buffer was 10 mM Hepes, 150 mM NaCl and […], 1 mM EDTA, pH 7.4. The binding data were analyzed using the BIAevaluation program.
Bound radiolabel was released from the column by EDTA. Surface plasmon analysis (FIG. 10A) confirmed this binding. […] Megalin-bound cubilin was still capable of binding IF-B12 as shown by subjecting the megalin-chip to flow with IF-B12 after the binding of cubilin (FIG. 10B). Thus, the response after adding IF-B12 represents the formation of a megalin-cubilin-IF-B12 complex.

rabbit megalin (rabbit) [1] = experiment: SPR (BIAcore 2000), rabbit megalin immobilized, 20 nM purified cubilin in flow, blank chip subtracted, one-binding-site fit
Cubilin [2] = biological target: T1, Cubilin (Rattus norvegicus, UniProt O70244); experiment: Ligands for cubilin: competition with known ligands; assay type: binding; details: RAP vs IF-B12; haptoglobin vs light chains; gentamicin vs light chain
[3] = tested on: renal brush border membrane; details: cited from earlier work
[4] = biological target: megalin in native membranes (rat renal brush-border membrane vesicles; rat yolk sac cells) (rat) (UniProt P98158); experiment: cell-based or functional assay
rabbit megalin (rabbit) [5] = experiment: SPR, RAP prebound to immobilized rabbit megalin; competitor cubilin in flow
[6] = tested on: rat renal brush border membrane vesicles; experiment: Gentamicin competition with fluorescein-light chain binding to brush border membrane vesicles (flow cytometry); details: control 39.6±4.2, n=4
Protocol: Given the abundance of megalin on the renal brush border membrane, if megalin is a light chain receptor this would predict that small polybasic drugs, such as gentamicin, which are known ligands for megalin, should compete for light chain binding to renal brush border membrane vesicles. To test this, rat renal brush border membrane vesicles were incubated in fluorescein-conjugated light chains with various concentrations of gentamicin. After washing, fluorescein-light chain binding to the membranes was analyzed by flow cytometry (FIG. 16). Estimate of half maximal binding concentration of gentamicin between 60 and 70 μM was placed in the middle of the curve. Gentamicin competes with fluorescent light chain binding to renal brush border membranes in a dose-dependent manner (control FITC-light chain binding 39.6±4.2 arbitrary fluorescence units, 10 μM gentamicin 45.1±3.1, 100 μM gentamicin 8.9±33.8*, 1000 μM gentamicin 6.3±1.9*, n=4, *p<0.05).

[7] = tested on: yolk sac epithelial cells (BN/MSV); experiment: Endocytosis of FITC-light chain by yolk sac cells; assay type: cell-based, rat; details: 30 min, FIG. 14A; antibody at 1:1,000 dilution
Protocol: The yolk sac epithelial cell line (BN/MSV) was derived from yolk sac teratocarcinoma induced by fetectomy and placental injection of mouse sarcoma virus (Sahali et al., 1988). When grown under conventional conditions in modified Eagle's medium, supplemented with 2.5 mM L-glutamine, 10% fetal calf serum, and an antibiotic cocktail (penicillin, streptomycin, and Fungizone), the cells form a domed monolayer and express abundant cubilin (Sahali et al., 1988).
Internalization experiments were conducted by exposing confluent yolk sac cells in 24-cell plates to […] FITC-conjugated light chain. These cells were selected for endocytosis experiments because cubilin expression is 100-fold greater than cultured proximal tubule cells (Sahali et al., 1988). […] This concentration is selected because it is 10-fold higher than the half-maximal inhibitory concentration of the antibody determined from the brush border binding inhibition experiments. […] Cells are then trypsininzed, fixed in 1% formaldehyde, and suspended in PBS, and FITC incorporated into each cell is read in a Becton-Dickinson flow cytometer as described previously. Endocytosis curves are generated by plotting fluorescence units corrected for background against time. […]

[8] = tested on: rat renal cortical intermicrovillar clefts; experiment: Endosomal fusion reconstituted in vitro (energy transfer); assay type: biochemical; design: dose or concentration left out as unconfirmed; details: membranes loaded with λ-light chains via homogenization buffer; n=8
Source text: The λ_light chains were loaded into rat renal cortical intermicrovillar cleft at […] by addition to the homogenization buffer. Fusion reconstituted in vitro in light chain-loaded membranes was inhibited compared with albumin-loaded control membranes. Values are mean±standard error for n=8, p<0.05 by unpaired t-test.
Fusion of these light chain loaded membranes was compared to control membranes loaded with the same concentration of albumin. All fluorescence measurements were corrected per mg of protein, and fusion reconstituted in vitro in cuvettes (Hammond et al., 1994). Data are expressed as mean +standard error of the mean throughout the application. Statistical analysis was performed by analysis of variance and Bonferroni or Scheffe's post hoc comparison.
To test whether myeloma light chains are functionally important in membrane trafficking and fusion events, intermicrovillar clefts were loaded with light chains by adding it to the homogenization buffer (Hammond et al., 1994). Fusion reconstituted in vitro in cuvettes was assayed by energy transfer, and results were normalized per milligram protein (Hammond et al., 1994; Jo et al., 1995).

Cubilin [9] = biological target: T1, Cubilin; experiment: Surface plasmon resonance analysis of light chain/cubilin interaction; assay type: binding; design: from tissue; host or cells: rat renal cortex (intermicrovillar clefts); details: cubilin 100 nM preincubated with κ-light chains (10 or 490 μM) or λ-light chains (10 μM)
Protocol: A sample of cubilin (100 nM) was incubated with κ-light chains (10 or 490 μM), or […] prior to injecting the sample over the κ-light chain surface. The binding of cubilin to the immobilized surfaces was reduced in the presence of κ- or λ-light chains in a dose-response fashion. Data are representative of experiments with 4 light chains on 3 chips. […] LC, light chains: RU, response units.
Intermicrovillar clefts prepared from renal cortices were biotinylated on the cytosolic facade using NHS-biotin (Winearls, 1995). Cubilin and the associated proteins were purified by immunoaffinity chromatography MAb 75 was coupled to CNBr-activated Sepharose 4B (Pharmacia, Saint Quentin en Yvelines, France) as previously described (Sahali et al., 1988; 1993). Protease inhibitors were added at all steps.
κ- or λ-light chains were immobilized via free amine groups to the dextran matrix of CM5 sensor chips activated by a 1/1 mixture of NHS and EDC. Unreacted sites were blocked with 1M ethanolamine, pH 8.5, (Jonsson et al., 1991; Sanders et al., 1988). The immobilization was conducted at 25° C. using 10 mM HEPES, 2 mM CaCl2, 150 mM NaCl, 0.005% NP-40, pH 7.4 as the flow buffer. Then 10 mM acetate pH 4.8 was used for electrostatic pre-concentration of the protein. […]

Sequence of RAP (Receptor related protein) (ligand) (P30533 35-357): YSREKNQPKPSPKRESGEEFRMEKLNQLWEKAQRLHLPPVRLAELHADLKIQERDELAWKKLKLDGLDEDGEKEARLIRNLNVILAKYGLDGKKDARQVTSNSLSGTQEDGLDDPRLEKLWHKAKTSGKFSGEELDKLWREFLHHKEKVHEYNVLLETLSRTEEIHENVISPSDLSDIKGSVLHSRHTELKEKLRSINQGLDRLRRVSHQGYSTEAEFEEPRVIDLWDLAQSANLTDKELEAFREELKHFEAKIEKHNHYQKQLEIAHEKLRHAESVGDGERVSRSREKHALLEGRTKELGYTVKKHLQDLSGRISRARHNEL
T1 sequence (O70244 33-3623): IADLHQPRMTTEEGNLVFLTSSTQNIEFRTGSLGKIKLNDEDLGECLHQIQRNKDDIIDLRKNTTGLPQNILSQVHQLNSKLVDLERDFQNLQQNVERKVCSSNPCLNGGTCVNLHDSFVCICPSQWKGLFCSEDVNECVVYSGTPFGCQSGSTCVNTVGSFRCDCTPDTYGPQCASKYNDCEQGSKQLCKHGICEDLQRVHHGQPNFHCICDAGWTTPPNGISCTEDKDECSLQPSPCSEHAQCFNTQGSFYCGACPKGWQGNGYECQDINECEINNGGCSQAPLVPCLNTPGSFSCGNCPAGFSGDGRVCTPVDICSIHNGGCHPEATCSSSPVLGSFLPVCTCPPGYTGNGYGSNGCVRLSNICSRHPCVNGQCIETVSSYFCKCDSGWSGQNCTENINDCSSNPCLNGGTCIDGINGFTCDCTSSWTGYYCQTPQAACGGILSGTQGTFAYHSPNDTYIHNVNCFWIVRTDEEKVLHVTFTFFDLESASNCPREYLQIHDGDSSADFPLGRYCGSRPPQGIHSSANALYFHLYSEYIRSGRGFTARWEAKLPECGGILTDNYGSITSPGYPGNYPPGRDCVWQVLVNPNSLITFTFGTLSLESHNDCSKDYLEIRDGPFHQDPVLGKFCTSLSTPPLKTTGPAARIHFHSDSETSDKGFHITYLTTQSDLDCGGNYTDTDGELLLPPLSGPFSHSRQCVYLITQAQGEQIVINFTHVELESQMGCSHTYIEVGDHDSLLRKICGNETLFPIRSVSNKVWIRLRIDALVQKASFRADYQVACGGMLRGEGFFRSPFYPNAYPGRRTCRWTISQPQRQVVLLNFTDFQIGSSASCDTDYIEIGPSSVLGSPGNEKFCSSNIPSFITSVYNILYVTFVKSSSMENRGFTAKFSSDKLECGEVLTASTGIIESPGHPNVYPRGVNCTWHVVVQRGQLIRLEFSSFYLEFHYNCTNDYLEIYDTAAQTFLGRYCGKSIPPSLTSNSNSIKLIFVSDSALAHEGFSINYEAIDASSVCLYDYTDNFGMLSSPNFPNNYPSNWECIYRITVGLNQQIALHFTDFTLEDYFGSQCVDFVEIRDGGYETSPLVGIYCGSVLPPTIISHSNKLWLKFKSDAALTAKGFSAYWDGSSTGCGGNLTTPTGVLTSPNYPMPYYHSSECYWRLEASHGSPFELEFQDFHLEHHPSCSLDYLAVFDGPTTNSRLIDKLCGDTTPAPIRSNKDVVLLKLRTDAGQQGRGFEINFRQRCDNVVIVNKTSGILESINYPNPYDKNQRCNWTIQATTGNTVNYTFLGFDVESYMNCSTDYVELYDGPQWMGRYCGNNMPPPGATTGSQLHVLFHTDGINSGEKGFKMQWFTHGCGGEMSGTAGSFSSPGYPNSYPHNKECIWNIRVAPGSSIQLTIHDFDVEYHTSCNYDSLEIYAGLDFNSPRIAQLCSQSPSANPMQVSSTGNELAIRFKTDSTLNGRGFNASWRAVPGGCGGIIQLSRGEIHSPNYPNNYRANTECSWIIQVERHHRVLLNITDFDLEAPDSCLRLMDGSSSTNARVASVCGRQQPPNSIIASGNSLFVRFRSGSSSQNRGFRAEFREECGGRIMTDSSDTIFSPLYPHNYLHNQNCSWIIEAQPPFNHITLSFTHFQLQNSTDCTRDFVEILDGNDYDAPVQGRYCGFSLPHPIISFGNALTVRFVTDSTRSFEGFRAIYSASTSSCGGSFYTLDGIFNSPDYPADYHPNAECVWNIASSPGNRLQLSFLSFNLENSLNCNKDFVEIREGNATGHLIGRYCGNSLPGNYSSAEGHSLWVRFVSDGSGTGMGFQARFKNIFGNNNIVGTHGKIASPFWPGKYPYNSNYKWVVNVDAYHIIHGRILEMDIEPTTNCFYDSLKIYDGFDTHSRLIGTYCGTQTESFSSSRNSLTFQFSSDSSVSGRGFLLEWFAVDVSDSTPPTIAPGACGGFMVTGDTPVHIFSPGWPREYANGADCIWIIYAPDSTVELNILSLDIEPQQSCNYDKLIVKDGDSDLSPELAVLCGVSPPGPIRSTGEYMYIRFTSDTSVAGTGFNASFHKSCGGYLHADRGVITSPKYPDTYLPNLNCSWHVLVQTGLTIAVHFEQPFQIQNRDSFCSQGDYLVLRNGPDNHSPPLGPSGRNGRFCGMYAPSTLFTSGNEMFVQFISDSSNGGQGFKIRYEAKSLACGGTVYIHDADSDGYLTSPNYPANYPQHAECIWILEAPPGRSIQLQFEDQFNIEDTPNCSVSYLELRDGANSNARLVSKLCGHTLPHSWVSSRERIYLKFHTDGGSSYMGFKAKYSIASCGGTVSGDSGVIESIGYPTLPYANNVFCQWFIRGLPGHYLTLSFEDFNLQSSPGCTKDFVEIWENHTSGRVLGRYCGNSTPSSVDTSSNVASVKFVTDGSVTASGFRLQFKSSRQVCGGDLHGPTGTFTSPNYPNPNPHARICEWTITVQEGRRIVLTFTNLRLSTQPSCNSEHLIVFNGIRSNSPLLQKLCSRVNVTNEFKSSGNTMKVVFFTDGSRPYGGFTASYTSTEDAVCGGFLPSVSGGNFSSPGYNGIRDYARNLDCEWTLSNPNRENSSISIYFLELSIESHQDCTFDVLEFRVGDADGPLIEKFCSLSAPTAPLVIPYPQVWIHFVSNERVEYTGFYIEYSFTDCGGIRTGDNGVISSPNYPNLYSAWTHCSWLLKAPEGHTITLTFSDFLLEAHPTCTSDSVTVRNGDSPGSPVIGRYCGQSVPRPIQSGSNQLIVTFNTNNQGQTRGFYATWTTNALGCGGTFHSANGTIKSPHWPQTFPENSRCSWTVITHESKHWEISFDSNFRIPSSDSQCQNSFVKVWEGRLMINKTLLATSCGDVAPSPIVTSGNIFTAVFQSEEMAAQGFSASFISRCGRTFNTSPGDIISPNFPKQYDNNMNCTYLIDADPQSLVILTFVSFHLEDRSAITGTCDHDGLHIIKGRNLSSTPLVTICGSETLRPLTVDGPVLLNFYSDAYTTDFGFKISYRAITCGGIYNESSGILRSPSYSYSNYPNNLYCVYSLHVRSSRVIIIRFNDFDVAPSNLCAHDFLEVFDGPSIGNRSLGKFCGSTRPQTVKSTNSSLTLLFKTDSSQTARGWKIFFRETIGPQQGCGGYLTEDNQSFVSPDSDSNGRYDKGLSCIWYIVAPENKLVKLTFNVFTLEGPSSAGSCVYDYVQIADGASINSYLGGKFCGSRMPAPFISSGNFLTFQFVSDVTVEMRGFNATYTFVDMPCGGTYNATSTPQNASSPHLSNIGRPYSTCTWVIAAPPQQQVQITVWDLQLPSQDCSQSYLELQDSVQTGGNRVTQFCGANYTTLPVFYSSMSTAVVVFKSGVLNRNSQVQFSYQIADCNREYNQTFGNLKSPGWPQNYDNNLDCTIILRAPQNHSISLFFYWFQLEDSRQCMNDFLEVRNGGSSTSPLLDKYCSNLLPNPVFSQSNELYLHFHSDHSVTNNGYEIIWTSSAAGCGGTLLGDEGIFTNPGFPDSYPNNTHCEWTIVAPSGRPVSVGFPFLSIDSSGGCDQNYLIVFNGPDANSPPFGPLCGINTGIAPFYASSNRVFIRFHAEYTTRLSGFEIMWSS
Sequence of cubilin (purified; species of origin not stated where used) (receptor) (O70244 33-3623): as above

For “Intrinsic factor vitamin B12: intrinsic factor-vitamin B12 complexes”, which “Binding to megalin (control experiments)” value (Rabbit megalin; megalin chip) is on record?
Its value is “no binding”.

With “cubilin (purified; species of origin not stated where used) (receptor)” as the substance, how does the pKd (rabbit megalin (rabbit) [1]) read?
The pKd was 8.15.

With “RAP: Receptor related protein; binds megalin and cubilin” as the substance, how does the “Reduction of binding of cubilin to megalin” value (Rabbit megalin; RAP prebound to megalin) read?
Its value is 75%.

What about the “Competition between ligands for binding to cubilin” value (Cubilin [2]) of the same substance?
The value was “does not inhibit”.

For haptoglobin: protein ligand for cubilin, which “Competition between ligands for binding to cubilin” value (Cubilin [2]) is on record?
The value was “do not compete”.

With “cubilin: 460 kDa epithelial glycoprotein receptor for intrinsic factor-vitamin B12 complexes; rat sequence SEQ ID No. 2” as the substance, how does the pKd (Rabbit megalin; binding data fitted to a one-binding-site model, 20 nM purified cubilin over immobilized rabbit megalin) read?
The pKd was 8.15.

For myoglobin, which “Competition with light chain for brush border membrane binding” value (from here on “Competition with light chain”) [3] is on record?
Its value is “competing”.

Which “Competition with light chain” value [3] does the source give for lysozyme here?
Its value is “competing”.

For RAP (Receptor related protein) (ligand), which reduction of endocytosis of 125I-IF-B12 in cultured yolk sac cell [4] is on record?
The reduction of endocytosis of 125I-IF-B12 in cultured yolk sac cell was 10 to 15%.

What about the reduction of cubilin binding to megalin (rabbit megalin (rabbit) [5]) of the same substance?
The reduction of cubilin binding to megalin was 75%.

Which results are given for gentamicin?
FITC-light chain binding ([6]; 10 μM gentamicin): 45.1±3.1 arbitrary fluorescence units; FITC-light chain binding ([6]; 100 μM gentamicin): 8.9±33.8 arbitrary fluorescence units; FITC-light chain binding ([6]; 1000 μM gentamicin): 6.3±1.9 arbitrary fluorescence units; Competition between ligands for binding to cubilin (Cubilin [2]): directly interferes

For “albumin: bovine serum albumin used as nonspecific protein control”, which “Effect on FITC-light chain endocytosis” value [7] is on record?
The value was “no effect”.

And the Endosomal fusion [8]?
Its Endosomal fusion is 1584±314 arbitrary fluorescence units/mg protein.

And the “Effect of free protein on binding of cubilin to immobilized light chains (competition)” value (Cubilin [9])?
The value was “neither competed with light chains, nor bound to cubilin”.

With “cytochrome c: low molecular weight protein competing with light chain” as the substance, how does the “Competition with light chain” value [3] read?
The value was “competing”.
